ChEMBL document CHEMBL1201862, “PubChem BioAssay data set” (2004)
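Assay format: 96-well plates, 48-hour exposure. Abbreviation: GI50, concentration required for 50% inhibition of growth.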 Active and inactive are the calls of the source. No stated cut-off is given here; in the data, active = GI50 up to about 1.1 µM and inactive = higher.

What was measured:
Assay in all cases: NCI anticancer screen, dose series, 48 h
SN12C = tested on: SN12C
Hs-578T = tested on: Hs-578T
MDA-MB-435 = tested on: MDA-MB-435
NCI-H23 = tested on: NCI-H23
BT-549 = tested on: BT-549
Malme-3M = tested on: Malme-3M
U-251 = tested on: U-251
UACC-62 = tested on: UACC-62
UACC-257 = tested on: UACC-257
SNB-75 = tested on: SNB-75
A498 = tested on: A498
HL-60 = tested on: HL-60
MCF7 = tested on: MCF7
SK-OV-3 = tested on: SK-OV-3
T47D = tested on: T47D
RPMI-8226 = tested on: RPMI-8226
RXF 393 = tested on: RXF 393
OVCAR-3 = tested on: OVCAR-3
LOX IMVI = tested on: LOX IMVI
MOLT-4 = tested on: MOLT-4
HT-29 = tested on: HT-29
HCT-116 = tested on: HCT-116
HOP-92 = tested on: HOP-92
SNB-19 = tested on: SNB-19
MDA-MB-231 = tested on: MDA-MB-231
HCT-15 = tested on: HCT-15
CAKI-1 = tested on: CAKI-1
A549 = tested on: A549
K562 = tested on: K562
786-0 = tested on: 786-0
IGROV-1 = tested on: IGROV-1
EKVX = tested on: EKVX
DU-145 = tested on: DU-145
NCI-H460 = tested on: NCI-H460
NCI-H522 = tested on: NCI-H522
SK-MEL-28 = tested on: SK-MEL-28
SF-295 = tested on: SF-295
OVCAR-5 = tested on: OVCAR-5
HOP-62 = tested on: HOP-62
SK-MEL-5 = tested on: SK-MEL-5
COLO 205 = tested on: COLO 205
SW-620 = tested on: SW-620
NCI-H226 = tested on: NCI-H226
M14 = tested on: M14
NCI/ADR-RES = tested on: NCI/ADR-RES
ACHN = tested on: ACHN
SK-MEL-2 = tested on: SK-MEL-2
TK-10 = tested on: TK-10
UO-31 = tested on: UO-31
HCC 2998 = tested on: HCC 2998
SF-539 = tested on: SF-539
PC-3 = tested on: PC-3
CCRF-CEM = tested on: CCRF-CEM
OVCAR-8 = tested on: OVCAR-8
SF-268 = tested on: SF-268
OVCAR-4 = tested on: OVCAR-4
SR = tested on: SR
KM12 = tested on: KM12
MDA-N = tested on: MDA-N

For `COC(=O)C1(C)CC2C(C)(CCC3(C)C4=CC=C5C(=CC(=O)C(O)=C5C)C4(C)CCC23C)CC1O` (stereo not given), the GI50 (SN12C) was 1490 nM (inactive), the GI50 (Hs-578T) was 1070 nM (active) and the GI50 (MDA-MB-435) was 942 nM (active). The GI50 (NCI-H23) was 2050 nM (inactive), the GI50 (BT-549) was 851 nM (active) and the GI50 (Malme-3M) was 762 nM (active). The GI50 (U-251) was 1090 nM (active), the GI50 (UACC-62) was 962 nM (active) and the GI50 (UACC-257) was 1720 nM (inactive). The GI50 (SNB-75) was 1920 nM (inactive), the GI50 (A498) was 1930 nM (inactive) and the GI50 (HL-60) was 216 nM (active). The GI50 (MCF7) was 1600 nM (inactive), the GI50 (SK-OV-3) was 2070 nM (inactive) and the GI50 (T47D) was 495 nM (active). For the same compound, the GI50 (RPMI-8226) was 283 nM (active), the GI50 (RXF 393) was 429 nM (active) and the GI50 (OVCAR-3) was 774 nM (active). The GI50 (LOX IMVI) was 333 nM (active), the GI50 (MOLT-4) was 285 nM (active) and the GI50 (HT-29) was 634 nM (active). The GI50 (HCT-116) was 564 nM (active), the GI50 (HOP-92) was 635 nM (active) and the GI50 (SNB-19) was 1590 nM (inactive). For the same compound, the GI50 (MDA-MB-231) was 577 nM (active), the GI50 (HCT-15) was 334 nM and the GI50 (CAKI-1) was 902 nM (active). For the same compound, the GI50 (A549) was 2290 nM (inactive), the GI50 (K562) was 284 nM (active) and the GI50 (786-0) was 226 nM (active). The GI50 (IGROV-1) was 331 nM (active), the GI50 (EKVX) was 1300 nM (inactive) and the GI50 (DU-145) was 1360 nM (inactive). For the same compound, the GI50 (NCI-H460) was 1790 nM (inactive), the GI50 (NCI-H522) was 200 nM (active) and the GI50 (SK-MEL-28) was 521 nM (active). The GI50 (SF-295) was 1780 nM (inactive), the GI50 (OVCAR-5) was 1730 nM (inactive) and the GI50 (HOP-62) was 1860 nM (inactive). The GI50 (SK-MEL-5) was 1660 nM (inactive), the GI50 (COLO 205) was 627 nM (active) and the GI50 (SW-620) was 405 nM (active). For the same compound, the GI50 (NCI-H226) was 2120 nM (inactive), the GI50 (M14) was 1260 nM (inactive) and the GI50 (NCI/ADR-RES) was 1060 nM (active). For the same compound, the GI50 (ACHN) was 450 nM (active), the GI50 (SK-MEL-2) was 1680 nM (inactive) and the GI50 (TK-10) was 624 nM (active). The GI50 (UO-31) was 1350 nM (inactive), the GI50 (HCC 2998) was 1560 nM (inactive) and the GI50 (SF-539) was 1100 nM (active). The GI50 (PC-3) was 1130 nM (inactive), the GI50 (CCRF-CEM) was 157 nM (active) and the GI50 (OVCAR-8) was 822 nM (active). For the same compound, the GI50 (SF-268) was 863 nM (active), the GI50 (OVCAR-4) was 1610 nM (inactive) and the GI50 (SR) was 203 nM (active). For the same compound, the GI50 (KM12) was 1570 nM (inactive).
With `CN(C)C(=O)O/N=C1/C(=C2/C(=O)Nc3ccccc32)Nc2ccccc21` the GI50 (SN12C) was 22800 nM (inactive), the GI50 (Hs-578T) was 9350 nM (inactive) and the GI50 (MDA-MB-435) was 50700 nM (inactive). For the same compound, the GI50 (NCI-H23) was 28700 nM (inactive), the GI50 (BT-549) was 13400 nM (inactive) and the GI50 (Malme-3M) was 4250 nM (inactive). The GI50 (U-251) was 11700 nM (inactive), the GI50 (UACC-62) was 16100 nM (inactive) and the GI50 (UACC-257) was 27200 nM (inactive). The GI50 (SNB-75) was 2450 nM (inactive), the GI50 (A498) was 1500 nM (inactive) and the GI50 (HL-60) was > 100000 nM (inactive). For the same compound, the GI50 (MCF7) was 17000 nM (inactive), the GI50 (SK-OV-3) was 11800 nM (inactive) and the GI50 (T47D) was 2760 nM (inactive). For the same compound, the GI50 (RPMI-8226) was > 100000 nM (inactive), the GI50 (RXF 393) was 1570 nM (inactive) and the GI50 (OVCAR-3) was 8990 nM (inactive). The GI50 (LOX IMVI) was 86300 nM (inactive), the GI50 (MOLT-4) was 10400 nM (inactive) and the GI50 (HT-29) was 38800 nM (inactive). For the same compound, the GI50 (HCT-116) was 19100 nM (inactive), the GI50 (HOP-92) was 6210 nM (inactive) and the GI50 (SNB-19) was 10900 nM (inactive). For the same compound, the GI50 (MDA-MB-231) was 11600 nM (inactive), the GI50 (HCT-15) was 19200 nM and the GI50 (CAKI-1) was 883 nM (active). The GI50 (A549) was 20500 nM (inactive), the GI50 (K562) was 27700 nM (inactive) and the GI50 (786-0) was 6980 nM (inactive). The GI50 (IGROV-1) was 711 nM (active), the GI50 (EKVX) was 4830 nM (inactive) and the GI50 (DU-145) was 8830 nM (inactive). The GI50 (NCI-H460) was 7960 nM (inactive), the GI50 (NCI-H522) was 8750 nM (inactive) and the GI50 (SK-MEL-28) was 36500 nM (inactive). For the same compound, the GI50 (SF-295) was 19100 nM (inactive), the GI50 (OVCAR-5) was 31000 nM (inactive) and the GI50 (HOP-62) was 14100 nM (inactive). The GI50 (SK-MEL-5) was 24200 nM (inactive), the GI50 (COLO 205) was > 100000 nM (inactive) and the GI50 (SW-620) was 53700 nM (inactive). The GI50 (M14) was 50100 nM (inactive), the GI50 (NCI/ADR-RES) was 21900 nM (inactive) and the GI50 (ACHN) was 19200 nM (inactive). For the same compound, the GI50 (SK-MEL-2) was 8530 nM (inactive), the GI50 (TK-10) was 17400 nM (inactive) and the GI50 (UO-31) was 21600 nM (inactive). For the same compound, the GI50 (HCC 2998) was 38500 nM (inactive), the GI50 (SF-539) was 9770 nM (inactive) and the GI50 (CCRF-CEM) was > 100000 nM (inactive). For the same compound, the GI50 (OVCAR-8) was 9750 nM (inactive), the GI50 (SF-268) was 6680 nM (inactive) and the GI50 (MDA-N) was 46200 nM (inactive). For the same compound, the GI50 (OVCAR-4) was 6810 nM (inactive), the GI50 (SR) was 4890 nM (inactive) and the GI50 (KM12) was 304 nM (active).
